Source: patent publication US6403149B1, “Fluorinated ketones as lubricant deposition solvents for magnetic media applications” (3M Innovative Properties Company, priority 2001, dated 2002)
Read-outs that look alike come from different tables or passages of the source. One block for each molecule: values may come before it.

Experiments:
[1] = Cardiac sensitization no-effect level; conditions: in vivo, inhaled
From the text: (§1) Additionally, the fluorinated ketones have low toxicity.

[2] = Short-term inhalation tests with rats (acute toxicity); assay type: in vivo
From the text: as §1

[3] = Solubility of impurities (dioctyl phthalate, silicone oils) in fluorinated solvents; assay type: physicochemical
Experimental: In Comparative Examples C6-C10, the same “impurities” were evaluated for solubility in C6F14 (a perfluorocarbon), C4F9OCH3 (a hydrofluoroether), CF3CFHCFHCF2CF3 (a hydrofluorocarbon), C3F5HCl2 (a hydrochlorofluorocarbon), and […] (a chlorofluorocarbon), all fluorinated solvents outside the scope of this invention.
The term “NT” denotes that the impurity was not tested in the fluorinated solvent.

[4] = Solubility/miscibility of perfluoropolyether lubricants (Z-DOL, AM 3001) and phosphazene additive X-1P in fluorinated solvents
Experimental: The term “miscible” denotes that the lubricant and fluorinated solvent were miscible in all proportions, forming an essentially clear solution. Any number entry denotes solubility in the fluorinated solvent as percent by weight. The term “NT” denotes that the compound was not tested for solubility with the solvent.
Z-DOL was evaluated for solubility in the following fluorinated ketones: […]

[5] = solute FOMBLIN AM 3001 perfluoropolyether lubricant, miscible = miscible in all proportions
[6] = solute X-1P cyclic phosphazene additive, miscible = miscible in all proportions
[7] = solute Z-DOL perfluoropolyether lubricant, miscible = miscible in all proportions, essentially clear solution

Molecule: O=C(C(F)(F)C(F)(F)F)C(F)(C(F)(F)F)C(F)(F)F [CF3CF2C(O)CF(CF3)2, 1,1,1,2,4,4,5,5,5-nonafluoro-2-trifluoromethyl-pentan-3-one]
"no-effect" level for cardiac sensitization [1]: > 150,000 ppm
Acute toxicity [2]: low acute toxicity
Solubility of DOP in the solvent [3]: 0.024
Solubility of Silicone 100 cst in the solvent [3]: <0.01
Solubility of Silicone 1000 cst in the solvent [3]: <0.01
Solubility of Silicone 10000 cst in the solvent [3]: <0.01
Solubility of AM 3001 in the solvent [4]: miscible
Solubility of X-1P in the solvent [4]: 0.03 percent by weight
Solubility of Z-DOL in the solvent [4]: miscible

Molecule: FC(C(F)C(F)(F)C(F)(F)F)C(F)(F)F (stereo not shown) [CF3CFHCFHCF2CF3, 1,1,1,2,3,4,4,5,5,5-decafluoropentane]
Solubility of AM 3001 in the solvent [4, 5]: miscible
Solubility of X-1P in the solvent [4, 6]: miscible
Solubility of Z-DOL in the solvent [4, 7]: miscible

Solubility of AM 3001 in the solvent [4, 5]: miscible
Solubility of Z-DOL in the solvent [4, 7]: miscible
Molecule: FC(F)(F)C(F)(F)C(F)(F)C(F)(F)C(F)(F)C(F)(F)F [C6F14, perfluorohexane]

Molecule: O=C(C(F)(F)C(F)(F)C(F)(F)F)C(F)(C(F)(F)F)C(F)(F)F [n-C3F7C(O)CF(CF3)2, 1,1,1,2,4,4,5,5,6,6,6-undecafluoro-2-trifluoromethylhexan-3-one]
Solubility of AM 3001 in the solvent [4, 5]: miscible
Solubility of Z-DOL in the solvent [4, 7]: miscible

Molecule: COC(F)(F)C(F)(F)C(F)(F)C(F)(F)F [C4F9OCH3, perfluorobutyl methyl ether]
Solubility of AM 3001 in the solvent [4, 5]: miscible
Solubility of X-1P in the solvent [4, 6]: miscible
Solubility of Z-DOL in the solvent [4, 7]: miscible

Molecule: O=C(C(F)(C(F)(F)F)C(F)(F)F)C(F)(C(F)(F)F)C(F)(F)F [(CF3)2CFC(O)CF(CF3)2, 1,1,1,2,4,5,5,5,6,6,6-octafluoro-2,4-bis(trifluoromethyl)pentan-3-one]
Solubility of AM 3001 in the solvent [4, 5]: miscible
Solubility of X-1P in the solvent [4, 6]: 0.03 percent by weight
Solubility of Z-DOL in the solvent [4, 7]: miscible

Molecule: dichloropentafluoropropane [C3F5HCl2]
Solubility of AM 3001 in the solvent [4, 5]: miscible
Solubility of X-1P in the solvent [4, 6]: miscible
Solubility of Z-DOL in the solvent [4, 7]: miscible
